Data set [1] deals with RSV minigenome transcription and RNA replication. Briefly: RSV minigenome assay in BSR-T7 cells. In kind it is cell-based, respiratory syncytial virus. Here is the method: RSV transcription and RNA replication were analyzed using a replication-deficient minigenome, in which the minigenome template contained a single nucleotide substitution in the trailer region, limiting it to the antigenome step of RNA replication and uncoupling transcription from replication. Minigenome transcription and replication were reconstituted intracellularly. BSR-T7 cells, a T7 RNA polymerase expressing cell line, were cultured in a 6-well dish and transfected with T7-driven plasmids that expressed the minigenome template (200 ng/ well), and the RSV proteins N (400 ng/ well), P (200 ng/ well), L (100 ng/ well) and M2-1 (100 ng/ well). Transfections were performed using Lipofectamine (Thermofisher) according to the manufacturer’s directions. […] Input minigenome RNA, antigenome RNA, and mRNAs were detected by subjecting RNA to electrophoresis in 1.5% agarose-formaldehyde gels in MOPS buffer, followed by Northern blotting using ^32P labeled riboprobes specific to negative sense minigenome (to detect the input RNA) and to positive sense antigenome and mRNAs. The same RNA samples were also analyzed by primer extension using ^32P end-labeled primers corresponding in sequence to nucleotides 15–39 of the leader region (to detect RNA initiated from the +1U and +3 C sites on the promoter). […] Quantification was performed by phosphorimage analysis. […]

A further data set is described as follows: in vitro. Particulars: human.
The subject of data set [2] is RSV B clinical isolates and laboratory strains. Briefly: Inhibition of RSV-B clinical isolates and laboratory strains, RT-qPCR, HeLa. Particulars: human respiratory syncytial virus, 6 strains, read-out: Median EC50. The data set is classed as cell-based. As to the method: Then, 100 µL of a HeLa cell suspension (5 × 10^4 cells/mL) in culture medium was added to each well. […] After 3 days of incubation, the supernatant was removed from wells. Plates were washed twice with ice-cold PBS (100 µL/well), and were then sealed and stored overnight at −80 °C. Next, 50 µL of lysis solution supplemented with DNAse was added to the plates and incubated for 5 min followed by the addition of 5 µL stop solution (Ambion Cell-to-CT bulk lysis reagent buffer). […] Roche) for cDNA synthesis. Reverse transcription was performed at 42 °C for 30 min, followed by denaturation at 95 °C for 5 min. […] The reaction consisted of a denaturation step (95 °C for 600 s), 45 cycles of denaturation (95 °C for 15 s) and annealing/elongation (60 °C for 60 s), and a step of cooling (40 °C for 10 s).
A general note: In qPCR the cycle at which signal appears reflects the starting amount.

Data set [3] deals with rVSV (Indiana strain-derived, luciferase reporter). In words: microbe, parasite or virus in culture. The data set is classed as cell-based, vesicular stomatitis virus.

What is called EC50 is the concentration at which the effect is half-maximal. With `COc1cc(C(=O)NC[C@](O)(c2cc(C(C)(C)O)c(F)c(-c3ccc(F)cc3)n2)C(F)(F)F)cc2cc(C)nnc12` [JNJ-8003], the “antigenome RNA and mRNA (in words)” value in data set [1] is reported as “dose dependent reduction”. The CC50 in the data set “in vitro” was more than 25 µM. The EC50 in data set [2] is 0.0001 µM; in data set [3] (Vesicular stomatitis virus, A549, read-out: Median EC50), more than 25 µM. In addition, in data set [3], the “inhibition (in words)” value is given as “negligible inhibition”.

Values taken from article PMC10590419, “Structural and mechanistic insights into the inhibition of respiratory syncytial virus polymerase by a non-nucleoside inhibitor” (Communications Biology, 2023).
